Measurements taken from BigSolDB 2.1.

Cn1cc[n+](CCC[n+]2ccn(C)c2)c1.F[P-](F)(F)(F)(F)F.F[P-](F)(F)(F)(F)F
Details	solubility (mole fraction)
in 2-butanone, 290.15 K	0.00292
in 2-butanone, 294.15 K	0.00339
in 2-butanone, 299.35 K	0.00404
in 2-butanone, 303.15 K	0.00458
in 2-butanone, 308.15 K	0.00524
in 2-butanone, 313.25 K	0.00598
in 2-butanone, 318.15 K	0.00671
in 2-butanone, 323.15 K	0.00738
in 2-butanone, 328.15 K	0.00811
in 2-butanone, 335.25 K	0.00913
in acetone, 289.15 K	0.0365
in acetone, 293.15 K	0.0401
in acetone, 296.65 K	0.0433
in acetone, 301.15 K	0.0485
in acetone, 306.15 K	0.0551
in acetone, 310.15 K	0.0605
in acetone, 315.15 K	0.0681
in acetone, 321.15 K	0.0772
in acetophenone, 289.15 K	0.000417
in acetophenone, 293.15 K	0.000461
in acetophenone, 296.65 K	0.0005
in acetophenone, 302.15 K	0.00056
in acetophenone, 307.15 K	0.000619
in acetophenone, 312.15 K	0.000683
in acetophenone, 317.35 K	0.000743
in acetophenone, 321.65 K	0.000807
in acetophenone, 328.15 K	0.000899
in acetophenone, 333.15 K	0.000996
in acetylacetone, 288.55 K	0.000598
in acetylacetone, 293.15 K	0.000876
in acetylacetone, 297.45 K	0.0012
in acetylacetone, 302.65 K	0.00172
in acetylacetone, 307.85 K	0.00241
in acetylacetone, 313.15 K	0.00325
in acetylacetone, 317.65 K	0.00411
in acetylacetone, 323.15 K	0.00532
in acetylacetone, 327.35 K	0.00639
in acetylacetone, 334.65 K	0.0084
in cyclohexanone, 289.65 K	0.000151
in cyclohexanone, 294.15 K	0.000222
in cyclohexanone, 299.15 K	0.000331
in cyclohexanone, 303.15 K	0.000443
in cyclohexanone, 308.15 K	0.000622
in cyclohexanone, 313.25 K	0.000852
in cyclohexanone, 318.15 K	0.00112
in cyclohexanone, 323.15 K	0.00143
in cyclohexanone, 328.15 K	0.00181
in cyclohexanone, 333.15 K	0.00224
in water, 289.15 K	7.7e-05
in water, 293.15 K	0.000102
in water, 297.65 K	0.000137
in water, 304.75 K	0.000216
in water, 309.35 K	0.000289
in water, 313.25 K	0.000366
in water, 317.15 K	0.000454
in water, 322.65 K	0.000611
in water, 327.15 K	0.00078
in water, 332.65 K	0.00104
